In patent publication US20160235686A1, “PROCESSES FOR PREPARING A SOLID POLYMER MATRIX CONTAINING A CORE MATERIAL BY PRESSURE CYCLING OF SUPERCRITICAL FLUID” (priority 2013, published 2016):
Non-standard residues stand in square brackets, D forms with d. Residues, ends and D or L forms follow the SMILES beside them. *: point of attachment. dPhe(4-NHCONH2) = NC(=O)Nc1ccc(C[C@@H](N)C(=O)O)cc1; Dihydroorotyl(S) = O=C1C[C@@H](C(=O)*)NC(=O)N1; dPhe(4-Cl) = N[C@H](Cc1ccc(Cl)cc1)C(=O)O; Phe(4-NH2) = Nc1ccc(C[C@H](N)C(=O)O)cc1; d2Nal = N[C@H](Cc1ccc2ccccc2c1)C(=O)O; Lys(iPr) = CC(C)NCCCC[C@H](N)C(=O)O; d3Pal = N[C@H](Cc1cccnc1)C(=O)O

Experiment: In vitro release testing of degarelix from microparticles
Type: physicochemical
Conditions: effect of 10 pressure cycles vs no pressure cycling, manitol/acetate buffer pH 4, 37° C.
Description: In-vitro release of microparticles is conducted with a manitol/acetate buffer solution at pH 4. […] Each sample is analysed in triplicate.
A 25 mg sample is weighed out into a 25 mL volumetric flask. 1 mL of acetone is added to the volumetric flask to dissolve the microparticles. Once dissolved, the volumetric flask is topped up with water (approximately 24 mL), precipitating the polymer. A 1 mL sample of the supernatant is taken and centrifuged at 13000 rpm for 3 min. From this, a 200 μL sample is taken and analysed by HPLC. The loading determination method is carried out in triplicate and an average is taken.

decrease in the initial burst release of degarelix from the formulation (FIG. 1, PLGA formulation prepared with processing aid (DMSO)): approximately 15%
decrease in the initial burst release of degarelix from the formulation (FIG. 2, PLGA formulation prepared without a processing aid): approximately 3%
Structure (SMILES): CC(=O)N[C@H](Cc1ccc2ccccc2c1)C(=O)N[C@H](Cc1ccc(Cl)cc1)C(=O)N[C@H](Cc1cccnc1)C(=O)N[C@@H](CO)C(=O)N[C@@H](Cc1ccc(NC(=O)[C@@H]2CC(=O)NC(=O)N2)cc1)C(=O)N[C@H](Cc1ccc(NC(N)=O)cc1)C(=O)N[C@@H](CC(C)C)C(=O)N[C@@H](CCCCNC(C)C)C(=O)N1CCC[C@H]1C(=O)N[C@H](C)C(N)=O [degarelix] (Ac-[d2Nal][dPhe(4-Cl)][d3Pal]S[Phe(4-NH2)](Dihydroorotyl(S))[dPhe(4-NHCONH2)]L[Lys(iPr)]P[dA]-NH2)
